Assay results: US20150344540A1, “NOVEL GLP-1 RECEPTOR AGONISTS WITH CHOLESTEROL EFFLUX ACTIVITY” (NOVO NORDISK A/S, priority 2012, published 2015)
Where a SMILES comes first, the peptide text is derived from it. [ ]: non-standard residue; d: D form. Aib = CC(C)(N)C(=O)O

Tested on: Mouse monocyte/macrophage cell line, RAW 264.7
Assay: Cholesterol efflux assay (3H-cholesterol, macrophage cell line)
Format: cell-based
Details: RAW 264.7, 4 hrs incubation, 0.1% human serum albumin; for 4 h Cholesterol Efflux Emax: ABCA1-mediated efflux; for EC50: read-out: 4 h Cholesterol Efflux EC50, ABCA1-mediated efflux (CPT-cAMP induced minus non-induced)

SMILES | 4 h Cholesterol Efflux Emax [%] | EC50 [nM]
CC[C@H](C)[C@H](NC(=O)[C@H](Cc1ccccc1)NC(=O)[C@H](CC(C)C)NC(=O)[C@H](CCCNC(=N)N)NC(=O)[C@@H](NC(=O)[C@H](C)NC(=O)[C@H](CCC(=O)O)NC(=O)CNC(=O)[C@H](CCC(=O)O)NC(=O)[C@H](CCSC)NC(=O)[C@H](CCC(N)=O)NC(=O)[C@H](CCCCN)NC(=O)[C@H](CO)NC(=O)[C@H](CC(C)C)NC(=O)[C@H](CC(=O)O)NC(=O)[C@H](CO)NC(=O)[C@@H](NC(=O)[C@H](Cc1ccccc1)NC(=O)[C@@H](NC(=O)CNC(=O)[C@H](CCC(=O)O)NC(=O)C(C)(C)NC(=O)[C@@H](N)Cc1c[nH]cn1)[C@@H](C)O)[C@@H](C)O)C(C)C)C(=O)N[C@@H](CCC(=O)O)C(=O)N[C@@H](Cc1c[nH]c2ccccc12)C(=O)N[C@@H](CC(C)C)C(=O)N[C@@H](CCCCN)C(=O)N[C@@H](CC(N)=O)C(=O)N[C@@H](CCCCN)C(=O)NC(C)(C)C(=O)N[C@@H](CC(C)C)C(=O)N[C@@H](CCC(=O)O)C(=O)N[C@@H](Cc1ccccc1)C(=O)N[C@@H](CC(C)C)C(=O)N[C@@H](CCC(=O)O)C(=O)N[C@@H](CC(C)C)C(=O)N[C@@H](CC(C)C)C(N)=O [Compound 12, [Aib2,Gly16,Lys29,Aib30,Leu31,Glu32,Phe33,Leu34,Glu35,Leu36,Leu371-Exendin-4-(1-37)-peptide amide] (H-H[Aib]EGTFTSDLSKQMEGEAVRLFIEWLKNK[Aib]LEFLELL-NH2; N-terminus assumed) | 86 | 
CC[C@H](C)[C@H](NC(=O)[C@H](Cc1ccccc1)NC(=O)[C@H](CC(=O)O)NC(=O)[C@H](CCCCN)NC(=O)[C@@H](NC(=O)[C@H](C)NC(=O)[C@H](CC(=O)O)NC(=O)CNC(=O)[C@H](CCC(=O)O)NC(=O)[C@H](CC(C)C)NC(=O)[C@H](Cc1ccc(O)cc1)NC(=O)[C@H](CO)NC(=O)[C@H](CO)NC(=O)[C@@H](NC(=O)[C@H](CC(=O)O)NC(=O)[C@H](CO)NC(=O)[C@@H](NC(=O)[C@H](Cc1ccccc1)NC(=O)[C@@H](NC(=O)CNC(=O)[C@H](CCC(=O)O)NC(=O)C(C)(C)NC(=O)[C@@H](N)Cc1c[nH]cn1)[C@@H](C)O)[C@@H](C)O)C(C)C)C(C)C)C(=O)N[C@@H](C)C(=O)N[C@@H](Cc1c[nH]c2ccccc12)C(=O)N[C@@H](CC(C)C)C(=O)N[C@H](C(=O)N[C@@H](CCC(=O)O)C(=O)N[C@@H](CCCCN)C(=O)NC(C)(C)C(=O)N[C@@H](CCCCN)C(=O)N[C@@H](CCC(=O)O)C(=O)N[C@@H](Cc1ccccc1)C(=O)N[C@@H](CC(C)C)C(N)=O)C(C)C [Compound 18, [Aib8,Asp23,Val25,Asp27,Glu34,Lys35,Aib36,Lys37]-GLP-1-(7-37)-peptidyl-Glu-Phe-Leu amide] (H-H[Aib]EGTFTSDVSSYLEGDAVKDFIAWLVEK[Aib]KEFL-NH2) | 89 | 
CC[C@H](C)[C@H](NC(=O)[C@H](Cc1ccccc1)NC(=O)[C@H](CCC(=O)O)NC(=O)[C@H](CCCNC(=N)N)NC(=O)[C@@H](NC(=O)[C@H](C)NC(=O)[C@H](CCC(=O)O)NC(=O)CNC(=O)[C@H](CCC(=O)O)NC(=O)[C@H](CC(C)C)NC(=O)[C@H](Cc1ccc(O)cc1)NC(=O)[C@H](CO)NC(=O)[C@H](CO)NC(=O)[C@@H](NC(=O)[C@H](CC(=O)O)NC(=O)[C@H](CO)NC(=O)[C@@H](NC(=O)[C@H](Cc1ccccc1)NC(=O)[C@@H](NC(=O)CNC(=O)[C@H](CCC(=O)O)NC(=O)C(C)(C)NC(=O)[C@@H](N)Cc1c[nH]cn1)[C@@H](C)O)[C@@H](C)O)C(C)C)C(C)C)C(=O)N[C@@H](C)C(=O)N[C@@H](Cc1c[nH]c2ccccc12)C(=O)N[C@@H](CC(C)C)C(=O)N[C@H](C(=O)N[C@@H](CCC(=O)O)C(=O)N[C@@H](CCCNC(=N)N)C(=O)NC(C)(C)C(=O)N[C@@H](CCCCN)C(=O)N[C@@H](CCC(=O)O)C(=O)N[C@@H](Cc1ccccc1)C(=O)N[C@@H](CC(C)C)C(N)=O)C(C)C [Compound 19, [Aib8,Glu23,Val25,Arg26,Glu34,Arg35,Aib36,Lys37]-GLP-1-(7-37)-peptidyl-Glu-Phe-Leu amide] (H-H[Aib]EGTFTSDVSSYLEGEAVREFIAWLVER[Aib]KEFL-NH2) | 83 | 
CC[C@H](C)[C@H](NC(=O)[C@H](Cc1ccccc1)NC(=O)[C@H](CCC(=O)O)NC(=O)[C@H](CCCCN)NC(=O)[C@@H](NC(=O)[C@H](C)NC(=O)[C@H](CCC(=O)O)NC(=O)CNC(=O)[C@H](CCC(=O)O)NC(=O)[C@H](CC(C)C)NC(=O)[C@H](Cc1ccc(O)cc1)NC(=O)[C@H](CO)NC(=O)[C@H](CO)NC(=O)[C@@H](NC(=O)[C@H](CC(=O)O)NC(=O)[C@H](CO)NC(=O)[C@@H](NC(=O)[C@H](Cc1ccccc1)NC(=O)[C@@H](NC(=O)CNC(=O)[C@H](CCC(=O)O)NC(=O)C(C)(C)NC(=O)[C@@H](N)Cc1c[nH]cn1)[C@@H](C)O)[C@@H](C)O)C(C)C)C(C)C)C(=O)N[C@@H](C)C(=O)N[C@@H](Cc1c[nH]c2ccccc12)C(=O)N[C@@H](CC(C)C)C(=O)N[C@H](C(=O)N[C@@H](CCC(=O)O)C(=O)N[C@@H](CCCCN)C(=O)N[C@@H](CC(C)C)C(=O)N[C@@H](CCCCN)C(=O)N[C@@H](CCC(=O)O)C(=O)N[C@@H](CC(C)C)C(=O)N[C@H](C(N)=O)C(C)C)C(C)C [Compound 20, [Aib8,Glu23,Val25,Glu34,Lys35,Leu36,Lys37]-GLP-1-(7-37)-peptidyl-Glu-Leu-Val amide] (H-H[Aib]EGTFTSDVSSYLEGEAVKEFIAWLVEKLKELV-NH2; N-terminus assumed) | 102 | 560
CC[C@H](C)[C@H](NC(=O)[C@H](Cc1ccccc1)NC(=O)[C@H](CCC(=O)O)NC(=O)[C@H](CCCCN)NC(=O)[C@@H](NC(=O)[C@H](C)NC(=O)[C@H](Cc1c[nH]c2ccccc12)NC(=O)CNC(=O)[C@H](CCC(=O)O)NC(=O)[C@H](CC(C)C)NC(=O)[C@H](Cc1ccc(O)cc1)NC(=O)[C@H](CO)NC(=O)[C@H](CO)NC(=O)[C@@H](NC(=O)[C@H](CC(=O)O)NC(=O)[C@H](CO)NC(=O)[C@@H](NC(=O)[C@H](Cc1ccccc1)NC(=O)[C@@H](NC(=O)CNC(=O)[C@H](CCC(=O)O)NC(=O)C(C)(C)NC(=O)[C@@H](N)Cc1c[nH]cn1)[C@@H](C)O)[C@@H](C)O)C(C)C)C(C)C)C(=O)N[C@@H](C)C(=O)N[C@@H](Cc1c[nH]c2ccccc12)C(=O)N[C@@H](CC(C)C)C(=O)N[C@H](C(=O)N[C@@H](CCC(=O)O)C(=O)N[C@@H](CCCCN)C(=O)NC(C)(C)C(=O)N[C@@H](CCCCN)C(=O)N[C@@H](CCC(=O)O)C(=O)N[C@@H](Cc1ccccc1)C(=O)N[C@@H](CC(C)C)C(N)=O)C(C)C [Compound 21, [Aib8,Trp23,Val25,Glu34,Lys35,Aib36,Lys37]-GLP-1-(7-37)-peptidyl-Glu-Phe-Leu amide] (H-H[Aib]EGTFTSDVSSYLEGWAVKEFIAWLVEK[Aib]KEFL-NH2) | 70 | 
CC[C@H](C)[C@H](NC(=O)[C@H](Cc1ccccc1)NC(=O)[C@H](CCC(=O)O)NC(=O)[C@H](CCCCN)NC(=O)[C@@H](NC(=O)[C@H](C)NC(=O)[C@H](CCC(=O)O)NC(=O)CNC(=O)[C@H](CCC(=O)O)NC(=O)[C@H](CC(C)C)NC(=O)[C@H](Cc1ccc(O)cc1)NC(=O)[C@H](CO)NC(=O)[C@H](CO)NC(=O)[C@@H](NC(=O)[C@H](CC(=O)O)NC(=O)[C@H](CO)NC(=O)[C@@H](NC(=O)[C@H](Cc1ccccc1)NC(=O)[C@@H](NC(=O)CNC(=O)[C@H](CCC(=O)O)NC(=O)C(C)(C)NC(=O)[C@@H](N)Cc1c[nH]cn1)[C@@H](C)O)[C@@H](C)O)C(C)C)C(C)C)C(=O)N[C@@H](C)C(=O)N[C@@H](Cc1c[nH]c2ccccc12)C(=O)N[C@@H](CC(C)C)C(=O)N[C@H](C(=O)N[C@@H](CCC(=O)O)C(=O)N[C@@H](CCCCN)C(=O)NC(C)(C)C(=O)N[C@@H](CCCCN)C(=O)N[C@@H](CCC(=O)O)C(=O)N[C@@H](Cc1ccccc1)C(=O)N[C@@H](Cc1c[nH]cn1)C(N)=O)C(C)C [Compound 22, [Aib8,Glu23,Val25,Glu34,Lys35,Aib36,Lys37]-GLP-1-(7-37)-peptidyl-Glu-Phe-His amide] (H-H[Aib]EGTFTSDVSSYLEGEAVKEFIAWLVEK[Aib]KEFH-NH2) | 106 | 
CC[C@H](C)[C@H](NC(=O)[C@H](Cc1ccccc1)NC(=O)[C@H](CCC(=O)O)NC(=O)[C@H](CCCNC(=N)N)NC(=O)[C@@H](NC(=O)[C@H](C)NC(=O)[C@H](CCC(=O)O)NC(=O)[C@H](CCC(=O)O)NC(=O)[C@H](CCC(=O)O)NC(=O)[C@H](CCSC)NC(=O)[C@H](CCC(N)=O)NC(=O)[C@H](CCCCN)NC(=O)[C@H](CO)NC(=O)[C@H](CC(C)C)NC(=O)[C@H](CC(=O)O)NC(=O)[C@H](CO)NC(=O)[C@@H](NC(=O)[C@H](Cc1ccccc1)NC(=O)[C@@H](NC(=O)CNC(=O)[C@H](CCC(=O)O)NC(=O)C(C)(C)NC(=O)[C@@H](N)Cc1c[nH]cn1)[C@@H](C)O)[C@@H](C)O)C(C)C)C(=O)N[C@@H](CCC(=O)O)C(=O)N[C@@H](Cc1c[nH]c2ccccc12)C(=O)N[C@@H](CC(C)C)C(=O)N[C@@H](CCCCN)C(=O)N[C@@H](CC(N)=O)C(=O)N[C@@H](CCCCN)C(=O)NC(C)(C)C(=O)N[C@@H](CC(C)C)C(=O)N[C@@H](CCC(=O)O)C(=O)N[C@@H](Cc1ccccc1)C(=O)N[C@@H](CC(C)C)C(=O)N[C@@H](CCC(=O)O)C(=O)N[C@@H](CC(C)C)C(=O)N[C@@H](CC(C)C)C(=O)O [Compound 23, [Aib2,Glu21,Lys29,Aib30,Leu31,Glu32,Phe33,Leu34,Glu35,Leu36,Leu371-Exendin-4-(1-37)-peptide] | 99 | 730
